Measured values taken from patent publication US20200016207A1, “[…] c-MPL PROVIDES LIGAND-DEPENDENT CO-STIMULATION AND CYTOKINE SIGNALS TO TCR-ENGINEERED T CELLS” (Baylor College of Medicine, priority 2017, published 2020).

What was measured:
[1] = system: c-MPL+ T cells; experiment: EP dose-titration, T cell expansion on OKT3/CD28-coated plates; assay type: cell-based, human
Procedure: Similar results were obtained with the TPO small molecule agonist EP. A dose-titration experiment was used to determine the optimal concentration of EP to support c-MPL+ T cell expansion (FIG. 2C). EP was previously shown to inhibit leukemia cell proliferation at higher concentrations (1-10 μg/ml) by reduction of intracellular iron, a c-MPL independent effect (Roth et al., 2012). NT or c-MPL+ T cells were re-activated on OKT3/CD28-coated plates in the presence of different EP concentrations and expansion of viable T cells was determined after 7 days. […] Thus, the effective EP concentration for c-MPL+ T cells was about 1 log lower than in previous reports assessing effects of EP on megakaryocytic progenitor cells or leukemia cells *Roth et al., 2012; Will et al., 2009). To assess c-MPL ligand-dependent signaling in TCR+c-MPL+ T cells, cells were left untreated (noCK) or treated with TPO50 or EP for 1 (left) or 24 hours (right). […] Next, it was evaluated whether rhTPO enhanced the anti-tumor function of TCR+c-MPL+ T cells using two different HLA-A*0201+survivin+hematologic malignancies as targets (U266 multiple myeloma, BV173 leukemia) (FIGS. 2E-2F). […] Again, addition of IL2 led to significant but antigen-independent enhancement of T cell expansion.

[2] = system: immune synapses between TCR+c-MPL+ T cells and BV173 leukemia cells; experiment: Immunological synapse imaging (confocal microscopy); assay type: cell-based, human; conditions: mean±SD
Procedure: T cells isolated from sequential killing co-cultures and fresh BV173 target cells were mixed at E:T 1:2, incubated for 10 minutes, fixed, permeabilized, stained with the appropriate antibodies, and analyzed on a Leica TCS SP8 laser scanning microscope. T cells were co-cultured with BV173 cells at an E:T ratio of 1:5 in CTL media with no cytokines, rhTPO (50 ng/mL) or EP (0.1 μg/mL). After one killing (no cytokine condition) or three sequential killings (rhTPO and EP conditions), cells were collected and dead cells removed (Dead Cell Removal Kit, Miltenyi) (FIG. 4A). For confocal microscopy, T cells and fresh BV173 target cells were mixed at E:T ratio of 1:2, incubated for ten minutes in a tube and ten minutes on silane-coated glass slides (Electron Microscopy Sciences) at 37° C. Cells were then permeabilized and fixed with Perm/Fix solution (BD) for 15 minutes at room temperature and stained with anti-Pericentrin (rabbit, Abcam) and anti-Perforin Alexa-488 (mouse, BD Biosciences) primary antibodies. Phalloidin 568 (Life Technologies) was used to detect F-actin. Cells were imaged as Z stacks of 0.2 μm thickness to cover their entire volume on a Leica TCS SP8 laser scanning microscope using a 100× objective. Images were acquired with the LASAF software (Leica) and analyzed with Imaris software (Imaris) and Fiji.

[3] = after three tumor cell challenges
[4] = baseline after T cell expansion

CC1=NN(c2ccc(C)c(C)c2)C(=O)/C1=N\Nc1cccc(-c2cccc(C(=O)O)c2)c1O [EP, eltrombopag, reference compound]
effect of EP treatment at 3 μg/ml on T cells ([1]; 3 μg/ml): uniformly lethal to T cells
effect of EP levels higher than 0.1 μg/ml on T cells ([1]; 7 days): toxic to the T cells
EP concentration retained to support c-MPL+ T cell expansion ([1]; 7 days, OKT3/CD28-coated plates): 0.1 µg/mL
MTOC to synapse distance, co-culture [2, 3]: 1.09±1.16 μm
perforin distance to the synapse (perforin convergence), co-culture [2, 3]: 4.25±1.28 μm
actin accumulation at the synapse, co-culture ([2]; after three tumor cell challenges, rhTPO 50 ng/mL or EP 0.1 μg/mL): 53.29±12.47%
MTOC to synapse distance, baseline [2, 4]: 2.42±2.14 μm
actin accumulation at the synapse, baseline [2, 4]: 40.95±14.82%
perforin distance to the synapse (perforin convergence), baseline [2, 4]: 4.26±2.04 μm
